Earlier results on 1 compound are cited in patent publication US9333159B2, “Topical DNA repair composition” (PHOTOMEDEX, INC., priority 2011, dated 2016).

For the data set the following is noted: known super antioxidants; USDA database value prevails where different.

For `C[N+](C)(C)[C@@H](Cc1c[nH]c(=S)[nH]1)C(=O)[O-]` [ergothioneine], the ORAC score was 61,000.
